Data published in patent US6667387B1, “HCV core peptides” (priority 1992, dated 2003).

Legend:
[1] = tested on: antibodies in sera from HCV-seropositive donors; assay: ELISA with HCV antibody-positive sera (biotinylated peptides on streptavidin- or avidin-coated plates, unbiotinylated peptides coated directly); assay type: binding, human; conditions: for PEPTIDE ELISA (O.D.): Table 12, biotinylated 20-mers; for optical density (450 nm): Table 7
Experimental: (§1) Where peptides were to be coated directly, stock solutions of the peptides were diluted in sodium carbonate buffer, pH 9.6 and used to coat polystyrene microtiter plates at a peptide concentration of 2 to 5 micrograms per milliliter for 1 hour at 37° C.
(§2) In cases where biotinylated peptides were to be evaluated, plates were first coated with streptavidin in sodium carbonate buffer, pH 9.6 at a concentration of 3 micrograms per milliliter for 1 hour at 37° C. The plates were then washed to remove excess, unbound protein. A working solution of the biotinylated peptide at 1 microgram per milliliter in sodium carbonate buffer was then added to the wells of the microtiter plate and incubated for 1 hours at 37° C.
(§3) Once the plates had been coated with antigen, any remaining free binding sites on the plastic were blocked with casein. After washing, a dilution of the appropriate antisera, usually 1:100, was added to the wells of the plates and incubated for 1 hour at 37° C.
(§4) After washing to remove unbound material, specific antibody binding was detected by incubating the plates with goat anti-human immunoglobulin antibodies conjugated to the enzyme horseradish peroxidase. Following removal of unbound conjugate by washing, a solution containing H2O2 and 3,3′,5,5′-tetramethylbenzidine was added.
(§5) Reactions were stopped after a suitable interval by addition of sulfuric acid. […] Absorbance measurements were made at a wavelength of 450 nanometers and all data are expressed as an optical density value at this wavelength.
The unbiotinylated peptides were adsorbed onto the wells of polystyrene microtiter plates at a concentration of 3 micrograms per milliliter.
The biotinylated peptides were bound at a concentration of 1 microgram per milliliter to streptavidin-coated microtiter plates. Sera known to contain antibodies to these peptides were used for the evaluation and were tested at a 20-fold dilution.
To investigate further the enhanced antibody recognition of biotinylated HCV peptides bound to streptavidin or avidin as compared to direct adsorption on plastic, the influence of peptide coating concentration was investigated. Three peptides (HCV peptides II, XI, and XVI) were coated in concentrations ranging from 10 nanograms per milliliter to 3 micrograms per milliliter in a volume of 200 microliters per microtiter plate well. For direct coating, the unbiotinylated versions of these peptides were used. The biotinylated versions of these peptides were used to coat wells to which streptavidin had previously been adsorbed. Sera known to contain antibodies to these peptides were used at a dilution of 1 to 100 to evaluate the magnitude of antibody binding.
(§6) Unbiotinylated HCV peptide I was coated directly onto the wells of a polystyrene ELISA plate at a concentration of 3 micrograms per milliliter in sodium carbonate buffer, pH 9.6. Biotinylated HCV peptide I was bound to streptavidin-coated wells using a stock solution containing the peptide at a concentration of 1 microgram per milliliter. The resulting plates were then incubated in parallel with a panel of sera from HCV-seropositive donors. […] Two of the sera (8326 and 8244) recognize the biotinylated version of this peptide far better than the unbiotinylated version. The specificity of the antibody reaction is also reflected by the low optical density values obtained for 5 serum samples from uninfected donors (F88, F89, F76, F136, and F6).
To determine how well biotinylated peptides would function in a mixture when bound to streptavidin- or avidin-coated plates, two mixtures were made of the N-terminally biotinylated versions of the HIV-1 peptides TM-HIV-1 (hereabove referred to as 1a.1) and V3-nm (hereabove referred to as 1b.4), the HIV-2 peptide TM-HIV-2 (hereabove referred to as 2a), and the hepatitis C virus peptides II, IX, and XVIII. […]

[2] = ELISA with seronegative / negative control sera (specificity); assay type: binding, human; conditions: Table 7
Experimental: as §1, §2, §3, §4, §5, §6
To determine how well biotinylated peptides would function in a mixture when bound to streptavidin- or avidin-coated plates, two mixtures were made of the N-terminally biotinylated versions of the HIV-1 peptides TM-HIV-1 (hereabove referred to as 1a.1) and V3-nm (hereabove referred to as 1b.4), the HIV-2 peptide TM-HIV-2 (hereabove referred to as 2a), and the hepatitis C virus peptides II, IX, and XVIII. Mixture A contained each of the six biotinylated peptides at a concentration of 1 microgram per milliliter (6 micrograms per milliliter peptide, total) while in mixture B, each peptide was present at a concentration of 0.1 microgram per milliliter (0.6 microgram per milliliter peptide, total). The individual peptides were coated at a concentration of 1 microgram per milliliter. For purposes of comparison, mixtures A and B were also coated directly onto the wells of a microtiter plate. Samples from HIV-1, HIV-2, and HCV-seropositive donors were tested and compared to sera from seronegative blood donors. A cut-off absorbance value of 0.250 was used to determine whether a reaction was positive or negative. Absorbance values equal or greater than 0.250 were considered positive while absorbance values below this value were considered negative.

## Core-7: biotinylated 20-mer, HCV core aa 37-56, SEQ ID NO:41
[1]; serum 0843
  PEPTIDE ELISA (O.D.): 1.251
[1]; serum 8240
  PEPTIDE ELISA (O.D.): 1.529
[1]; serum 8241
  PEPTIDE ELISA (O.D.): 0.448
[1]; serum 8242
  PEPTIDE ELISA (O.D.): 0.632
[1]; serum 8332
  PEPTIDE ELISA (O.D.): 1.387
[1]; serum 8339
  PEPTIDE ELISA (O.D.): 0.166
[1]; serum 8350
  PEPTIDE ELISA (O.D.): 0.357
[1]; serum 8377
  PEPTIDE ELISA (O.D.): 0.221
[1]; serum 8378
  PEPTIDE ELISA (O.D.): 1.089
[1]; serum 8388
  PEPTIDE ELISA (O.D.): 0.970

## H2N-Met-Ser-Thr-Ile-Pro-Lys-Pro-Gln-Arg-Lys-Thr-Lys-Arg-Asn-Thr-Asn-Arg-Arg-Pro-Gln-CONH2 (H-MSTIPKPQRKTKRNTNRRPQ-NH2) [HCV peptide I]
[1]; serum 6378, HCV antibody-positive
  optical density (450 nm): 2.161
[1]; serum 8242, HCV antibody-positive
  optical density (450 nm): 1.367
[1]; serum 8243, HCV antibody-positive
  optical density (450 nm): 2.211
[1]; serum 8244, HCV antibody-positive
  optical density (450 nm): 0.077
[1]; serum 8248, HCV antibody-positive
  optical density (450 nm): 2.042
[1]; serum 8316, HCV antibody-positive
  optical density (450 nm): 2.394
[1]; serum 8318, HCV antibody-positive
  optical density (450 nm): 2.385
[1]; serum 8320, HCV antibody-positive
  optical density (450 nm): 2.760
[1]; serum 8326, HCV antibody-positive
  optical density (450 nm): 0.525
[1]; serum 8329, HCV antibody-positive
  optical density (450 nm): 2.633
[1]; serum 8330, HCV antibody-positive
  optical density (450 nm): 1.985
[1]; serum 8333, HCV antibody-positive
  optical density (450 nm): 2.143
[1]; serum 8334, HCV antibody-positive
  optical density (450 nm): 2.271
[1]; serum 8336, HCV antibody-positive
  optical density (450 nm): 1.558
[1]; serum 8344, HCV antibody-positive
  optical density (450 nm): 1.878
[1]; serum 8364, HCV antibody-positive
  optical density (450 nm): 2.705
[1]; serum 8374, HCV antibody-positive
  optical density (450 nm): 1.070
[1]; serum 8387, HCV antibody-positive
  optical density (450 nm): 1.427
[2]; serum F8, HCV antibody-negative
  optical density (450 nm): 0.000
[2]; serum F76, HCV antibody-negative
  optical density (450 nm): 0.000
[2]; serum F88, HCV antibody-negative
  optical density (450 nm): 0.000
[2]; serum F89, HCV antibody-negative
  optical density (450 nm): 0.017
[2]; serum F136, HCV antibody-negative
  optical density (450 nm): 0.006

## HCV-7: biotinylated 20-mer, HCV NS4 aa 1724-1743, SEQ ID NO:55
[1]; serum 0843
  PEPTIDE ELISA (O.D.): 2.251
[1]; serum 8240
  PEPTIDE ELISA (O.D.): 1.963
[1]; serum 8241
  PEPTIDE ELISA (O.D.): 0.968
  antibody binding to the 20-mers: Moderate binding
[1]; serum 8242
  PEPTIDE ELISA (O.D.): 1.252
[1]; serum 8332
  PEPTIDE ELISA (O.D.): 0.945
[1]; serum 8339
  PEPTIDE ELISA (O.D.): 0.041
[1]; serum 8350
  PEPTIDE ELISA (O.D.): 0.598
[1]; serum 8377
  PEPTIDE ELISA (O.D.): 1.829
[1]; serum 8378
  PEPTIDE ELISA (O.D.): 2.006
[1]; serum 8388
  PEPTIDE ELISA (O.D.): 2.504

## NS5-25: biotinylated 20-mer, HCV NS5 aa 2263-2282, SEQ ID NO:59
[1]; serum 0843
  PEPTIDE ELISA (O.D.): 0.062
[1]; serum 8240
  PEPTIDE ELISA (O.D.): 0.054
[1]; serum 8241
  PEPTIDE ELISA (O.D.): 0.050
[1]; serum 8242
  PEPTIDE ELISA (O.D.): 0.260
[1]; serum 8332
  PEPTIDE ELISA (O.D.): 0.047
[1]; serum 8339
  PEPTIDE ELISA (O.D.): 1.495
[1]; serum 8350
  PEPTIDE ELISA (O.D.): 0.069
[1]; serum 8377
  PEPTIDE ELISA (O.D.): 1.092
[1]; serum 8378
  PEPTIDE ELISA (O.D.): 0.279
[1]; serum 8388
  PEPTIDE ELISA (O.D.): 0.055
